The text below walks through data of patent US10760110B2, “Antibiotic testing and screening system” (priority 2017, dated 2020).

≈ marks a conversion by molar mass, not a printed value. Read-outs that look alike come from different tables or passages of the source.

What is called MIC is the least concentration at which growth counts as inhibited.

The subject of assay [1] is K. pneumoniae NVT1001 and its ΔompK35/36 and/or ΔramR mutants. Briefly: Etest MIC, OmpK35/36 loss and AcrAB-TolC overexpression (ΔramR) strains (Table 6). In kind it is cell-based, Klebsiella pneumoniae. How it is done:
(§1) The MICs of antibiotics were determined using the Etest (Biodisk AB, Sweden) according to the manufacturer's instructions. The MICs from the Etest, which fall between standard two-fold dilutions, were rounded up to the next highest two-fold value. The MICs of ceftazidime and cefotaxime against K. pneumoniae NVT1001 harbouring the pACYC177 plasmid with blaOXA-48 were further determined using a broth microdilution test according to the recommendations of the CLSI,^25 and the results were interpreted according to the breakpoints established by the CLSI in 2017.^25 Meanwhile, due to the lack of CLSI breakpoints in 2016 and 2017, the results for cephalothin were interpreted according to the breakpoints established by the CLSI in 2015,^26 and the results for moxifloxacin were interpreted according to the breakpoints established by the EUCAST in 2017.^27

For assay [2], the system named is K. pneumoniae NVT1001 ΔramRΔompK35/36 mutant and its revertants. Briefly: Etest MIC, ΔramRΔompK35/36 mutant and its revertants (Table 7). Type of assay: cell-based. The following applies: Klebsiella pneumoniae.
Description: The allelic-exchange method was used to restore the wild-type gene in the K. pneumoniae NVT1001 mutants with constructed chromosome-mediated resistance mechanisms, as described by Tsai et al.^19 Briefly, a DNA fragment of the entire wild-type gene sequence along with flanking regions was amplified from K. pneumoniae NVT1001 using PCR with specific primers. The resulting PCR fragment was digested and then cloned into pUT-KB. For homologous recombination, this plasmid was transformed into E. coli S17-1 λpir^23 via electroporation and mobilized into the K. pneumoniae NVT1001 mutant via conjugation. […] After incubation in 20 mL BHI broth for 6 hours at 37° C. in the absence of kanamycin, the fully grown cultures were spread onto LB agar plates supplemented with 10% sucrose. After the double crossover occurred, the sucrose-resistant and kanamycin-susceptible colonies were selected, and the restoration of the wild-type gene was confirmed via DNA sequencing.
as §1

[3] abbreviates: Klebsiella pneumoniae, WT, NVT1001, read-out: MIC.
Where [4] appears, read: Klebsiella pneumoniae, Δ35, ΔompK35 mutant.
Setting [5] is: Klebsiella pneumoniae, Δ35/36, ΔompK35/36 mutant.
[6] abbreviates: Klebsiella pneumoniae, Δ36, ΔompK36 mutant.
The mark [7] stands for this setting: Klebsiella pneumoniae, ΔramR mutant.
[8] abbreviates: Klebsiella pneumoniae, ΔramRΔ35, ΔramRΔompK35 mutant.
[9] abbreviates: Klebsiella pneumoniae, ΔramRΔ35/36, ΔramRΔompK35/36 mutant.
Where [10] appears, read: Klebsiella pneumoniae, ΔramRΔ36, ΔramRΔompK36 mutant.
Setting [11] is: ΔramRΔ35/36, ΔramRΔompK35/36 mutant.
[12] abbreviates: ΔramRΔompK35/36::ompK35/36 revertant.
Setting [13] is: ΔramRΔompK35/36::ompK35 revertant.
[14] abbreviates: ΔramRΔompK35/36::ompK36 revertant.
Where [15] appears, read: ΔramRΔompK35/36::ramR revertant.
The mark [16] stands for this setting: ΔramRΔompK35/36::ramR::ompK35/36 revertant.
[17] abbreviates: ΔramRΔompK35/36::ramR::ompK35 revertant.
The mark [18] stands for this setting: ΔramRΔompK35/36::ramR::ompK36 revertant.

`NC[C@H]1O[C@H](O[C@H]2[C@H](O)[C@@H](O[C@H]3O[C@H](CO)[C@@H](O)[C@H](N)[C@H]3O)[C@H](N)C[C@@H]2N)[C@H](N)C[C@@H]1O` [Tobramycin]: the MIC in assay [1] (setting [3]), in assay [1] (setting [4]), in assay [1] (setting [5]), in assay [1] (setting [6]), in assay [1] (setting [7]) and in assay [1] (setting [8]) was 0.5 µg/mL (≈ 1.07 µM) throughout. In addition, the MIC in assay [1] (setting [9]) is 1 µg/mL (≈ 2.14 µM); in assay [1] (setting [10]), 0.5 µg/mL (≈ 1.07 µM).

On to Polymyxin B, for which the MIC in assay [1] (WT, NVT1001) is 2 µg/mL; in assay [1] (Δ35, ΔompK35 mutant), 2 µg/mL; in assay [1] (Δ35/36, ΔompK35/36 mutant) it was 2 µg/mL; in assay [1] (Δ36, ΔompK36 mutant) it was 2 µg/mL; in assay [1] (ΔramR mutant), 1 µg/mL; in assay [1] (ΔramRΔ35, ΔramRΔompK35 mutant) it was 1 µg/mL. The MIC stood at 1 µg/mL in assay [1] (setting [11]) and 2 µg/mL in assay [1] (ΔramRΔ36, ΔramRΔompK36 mutant).

Take `O=C(N[C@H](CO)[C@H](O)c1ccc([N+](=O)[O-])cc1)C(Cl)Cl` [Chloramphenicol]: the MIC in assay [1] (Klebsiella pneumoniae, WT, NVT1001) was 8 µg/mL (≈ 24.8 µM); in assay [1] (setting [4]), 8 µg/mL (≈ 24.8 µM); in assay [1] (setting [5]), 8 µg/mL (≈ 24.8 µM); in assay [1] (setting [6]), 8 µg/mL (≈ 24.8 µM); in assay [1] (setting [7]), 128 µg/mL (≈ 396 µM); in assay [1] (setting [8]) it was 128 µg/mL (≈ 396 µM). Also, the minimum inhibitory concentration (MIC) in assay [1] (setting [9]) stood at 128 µg/mL (≈ 396 µM); in assay [1] (setting [10]), 128 µg/mL (≈ 396 µM); in assay [2] (setting [12]) it was 64 µg/mL; in assay [2] (setting [13]), 128 µg/mL; in assay [2] (setting [14]), 64 µg/mL; in assay [2] (setting [15]) it was 8 µg/mL. For the same compound, the MIC in assay [2] (setting [16]) worked out at 4 µg/mL; in assay [2] (setting [17]), 4 µg/mL; in assay [2] (setting [18]) it was 8 µg/mL; in assay [2] (ΔramRΔompK35/36 mutant) it was 128 µg/mL.

In the case of Colistin, the MIC was determined as 1 µg/mL in assay [1] (WT, NVT1001); 1 µg/mL in assay [1] (Δ35, ΔompK35 mutant); 1 µg/mL in assay [1] (Δ35/36, ΔompK35/36 mutant); 1 µg/mL in assay [1] (Δ36, ΔompK36 mutant); 1 µg/mL in assay [1] (ΔramR mutant); 1 µg/mL in assay [1] (ΔramRΔ35, ΔramRΔompK35 mutant). For the same compound, the MIC was found to be 1 µg/mL in assay [1] (setting [11]) and 1 µg/mL in assay [1] (ΔramRΔ36, ΔramRΔompK36 mutant).

`C[C@@H]1O[C@@H]1P(=O)(O)O` [Fosfomycin]: the MIC in assay [1] (setting [3]) came to 128 µg/mL (≈ 927 µM); in assay [1] (setting [4]), 128 µg/mL (≈ 927 µM); in assay [1] (setting [5]) it was 512 µg/mL (≈ 3710 µM); in assay [1] (setting [6]), 256 µg/mL (≈ 1850 µM); in assay [1] (setting [7]), 64 µg/mL (≈ 464 µM); in assay [1] (setting [8]), 128 µg/mL (≈ 927 µM). In addition, the MIC in assay [1] (setting [9]) was more than 1020 µg/mL; in assay [1] (setting [10]) it was 512 µg/mL (≈ 3710 µM); in assay [2] (setting [12]), 64 µg/mL; in assay [2] (setting [13]) it was 512 µg/mL; in assay [2] (setting [14]), 128 µg/mL; in assay [2] (setting [15]) it was 512 µg/mL. In addition, the MIC is 128 µg/mL in assay [2] (setting [16]), 256 µg/mL in assay [2] (setting [17]), 128 µg/mL in assay [2] (setting [18]) and more than 1020 µg/mL in assay [2] (ΔramRΔompK35/36 mutant).

Regarding `O=C1CN(/N=C/c2ccc([N+](=O)[O-])o2)C(=O)N1` [Nitrofurantoin], the minimal inhibitory concentration (MIC) in assay [1] (setting [3]) was 64 µg/mL (≈ 269 µM); in assay [1] (setting [4]), 64 µg/mL (≈ 269 µM); in assay [1] (setting [5]), more than 512 µg/mL; in assay [1] (setting [6]), more than 512 µg/mL; in assay [1] (setting [7]), 256 µg/mL (≈ 1070 µM); in assay [1] (setting [8]), 256 µg/mL (≈ 1070 µM). In addition, the MIC in assay [1] (setting [9]) was more than 512 µg/mL; in assay [1] (setting [10]), more than 512 µg/mL; in assay [2] (setting [12]), 256 µg/mL; in assay [2] (setting [13]), more than 512 µg/mL; in assay [2] (setting [14]), 256 µg/mL; in assay [2] (setting [15]), more than 512 µg/mL. Moreover, the MIC was 64 µg/mL in assay [2] (setting [16]), more than 512 µg/mL in assay [2] (setting [17]), 64 µg/mL in assay [2] (setting [18]) and more than 512 µg/mL in assay [2] (ΔramRΔompK35/36 mutant).

For the compound Gentamicin, the MIC in assay [1] (WT, NVT1001) is 0.5 µg/mL; in assay [1] (Δ35, ΔompK35 mutant) it was 0.5 µg/mL; in assay [1] (Δ35/36, ΔompK35/36 mutant) it was 0.5 µg/mL; in assay [1] (Δ36, ΔompK36 mutant), 0.5 µg/mL; in assay [1] (ΔramR mutant), 0.5 µg/mL; in assay [1] (ΔramRΔ35, ΔramRΔompK35 mutant) it was 0.25 µg/mL. For the same compound, the MIC in assay [1] (setting [11]) came to 0.5 µg/mL; in assay [1] (ΔramRΔ36, ΔramRΔompK36 mutant) it was 0.5 µg/mL.

For the compound `NC[C@H]1O[C@H](O[C@H]2[C@H](O)[C@@H](O[C@H]3O[C@H](CO)[C@@H](O)[C@H](N)[C@H]3O)[C@H](N)C[C@@H]2N)[C@H](O)[C@@H](O)[C@@H]1O` [Kanamycin], the MIC in assay [1] (setting [3]) worked out at 2 µg/mL (≈ 4.13 µM); in assay [1] (setting [4]) it was 2 µg/mL (≈ 4.13 µM); in assay [1] (setting [5]), 4 µg/mL (≈ 8.26 µM); in assay [1] (setting [6]), 2 µg/mL (≈ 4.13 µM); in assay [1] (setting [7]), 2 µg/mL (≈ 4.13 µM); in assay [1] (setting [8]) it was 2 µg/mL (≈ 4.13 µM). In addition, the MIC in assay [1] (setting [9]) and in assay [1] (setting [10]) was 2 µg/mL (≈ 4.13 µM) throughout.
